Data set [1] in a line: time-resolved singlet oxygen luminescence measurements in water and microemulsions. The class given is physicochemical. More on the design: Integral: unit not given here. The note with it: for Integral: singlet oxygen luminescence; for Decay period / Formation time / Relative yield with respect to H2O: singlet oxygen; for Relative yield with respect to H2O: ratio of the integrals. As for the experimental part: The formation of singlet oxygen following irradiation of a photosensitizer-containing microemulsion was determined using time-resolved singlet oxygen luminescence measurements.
For the relevant measurements, 5 μM of the respective photosensitizers used were dissolved in water or in the emulsions E1 to E4.
The time-resolved singlet oxygen luminescence measurements were carried out in accordance with the methods described in S. Y. Egorov et al., 1999.
A tuneable laser system was used to produce the singlet oxygen (model: NT242-SH/SFG, serial number: PGD048) from EKSPLA (Vilnius, […]). A portion of the monochromatic laser beam produced was directed onto a photodiode which acted as a trigger signal for the time-correlated single photon measurement.
The other part of the laser beam was directed onto a 1 cm thick quartz cell (SUPRASIL, Type 101-QS, Hellma GmbH & Co. KG, Mühlheim, DE), in which the solution to be tested had been disposed.
The formation of singlet oxygen was detected by direct detection of the time- and spectrally-resolved singlet oxygen luminescence.
Singlet oxygen luminescence was carried out by means of a nitrogen-cooled photomultiplier (model R5509-42, Hamamatsu Photonics, Hamamatsu, Japan) and a multiscaler (7886S, FAST Corn Tec GmbH, Oberhaching, Germany).
The singlet oxygen luminescence was detected at a wavelength in the range 1200 nm to 1400 nm using interference filters which were disposed in front of the photomultiplier.
The quantum yield was determined in accordance with the method described in Baier J. et al. (“Singlet Oxygen Generation by UVA Light Exposure of Endogenous Photosensitizers”, Biophys. J. 91(4), 2006, pages 1452 to 1459; doi. 10.1529/biophysj.106.082388).
The relative yield of singlet oxygen for each photosensitizer with respect to the quantity of singlet oxygen formed in water was calculated from the ratio of the integrals.

Data set [2] has as its system Escherichia coli (E. coli; ATCC Number: 25922). Description: phototoxicity measurements (MTT test; colony forming units by Miles and Misra). The class given is cell-based. The note with it: for reduction in the quantity of E. coli: irradiated. The source says:
(§1) In order to investigate the phototoxicity of the microemulsions in accordance with the invention, a MTT test was used. Assaying cell vitality using a MTT test is based on the reduction of the yellow, water-soluble dye 3-(4,5-dimethylthiazol-2-yl)-2,5-diphenyltetrazolium bromide (MIT, Sigma-Aldrich Chemie GmbH, Munich, DE) into a blue-violet […] (formazan) which is insoluble in water. MTT is a dye which can pass through membranes, which is metabolized by mitochondrial dehydrogenases in living cells, which in the end leads to the formation of formazan crystals.
(§2) Formazan crystals can no longer pass through the membranes and accumulate in proliferating undamaged cells. After cell lysis and dissolving the crystals, the dye is then quantified by colorimetric measurement at 550 nm in a multi-well spectrophotometer (ELISA reader). The quantity of formazan formed is determined as the optical density (OD). The measured quantity of formazan is directly proportional to the number of proliferating cells, so that this test is suitable for the measurement of the phototoxicity of the microemulsions used. The measured OD can be assigned a cell count by means of a previously determined calibration curve.
(§3) The concentration of the respective photosensitizers TMPyP, SA-PN-01a, SA-PN-02a, SA-PN-24d, FL-AS-H-1a or FL-AS-H-2 in the microemulsions E1 to E4 was 0 μM, 10 μM, 25 μM, 50 μM, 100 μM, 250 μM and 500 μM.
(§4) Furthermore, the respective microemulsions E1 to E4 without photosensitizer were used as a control.
(§5) The phototoxicity measurements were carried out on Escherichia coli (E. coli; ATCC Number: 25922) and Staphylococcus aureus (S. aureus; ATCC Number: 25923), as described by Mosmann (1983). (Mosmann T.: Rapid colorimetric assay for cellular growth and survival: application to proliferation and cytotoxicity assays: J. Immunol. methods. 1983 (65); pages 55-63).
(§6) 25 μL of a suspension of the bacteria used were grown overnight in Müller-Hinton liquid medium (Merck KGaA, Darmstadt, Germany) with an optical density of 0.6 at 600 nm were incubated with 25 μL of the test solution at room temperature for 10 seconds in darkness in a 96-well microtitre plate (Cellstar, Greiner Bio-One, Frickenhausen, Germany).
(§7) Next, the microtitre plate was irradiated for 40 s. For irradiation, the light source Blue V from Waldmann (Villingen-Schwenningen, Germany) was used, which emits light at 380 to 480 nm (emission maximum at approximately 420 nm). The applied power was 20 mW/cm^2.
(§8) For each experiment, three controls were carried out at the same time in order to exclude side effects of the irradiation/photosensitizer (PS) on survival of the bacteria: (i) no PS, only light (=light control), (ii) no light, only PS (=dark control), and (iii) neither light nor PS (=reference control).
(§9) After irradiation had been completed, 75 μL of a 25% by weight SDS solution was added to each well of the microtitre plate and the bacterial cells were lysed overnight at 37° C. in an incubator.
(§10) Finally, the optical density (OD) was determined with the aid of a microtitre plate photometer (model EAR 400 AT, SLT Laborinstruments Austria, Salzburg, AT).
(§11) After lysis of the cells and dissolution of the crystals, the dye could then be quantified in a multi-well spectrophotometer (ELISA-Reader) by colorimetric measurement at 550 nm.
(§12) The determination of the colony forming units was carried out in accordance with the method published by Miles and Misra (Miles, AA; Misra, SS, Irwin, JO (1938 November). “The estimation of the bactericidal power of the blood” The Journal of hygiene 38 (6): 732-49). In this regard, serial dilutions from 10^−2 to 10^−9 of the corresponding bacterial suspension were produced. In each case, 3×20 μL of the corresponding bacterial dilutions were then dropped onto Müller-Hinton plates and incubated at 37° C. for 24 h. Next, the number of surviving colony forming units (CFU) was determined. All of the experiments were carried out three times.
For orientation: Tetrazolium dyes change colour on reduction, which living cells bring about.

In data set [3] the test system is Staphylococcus aureus (S. aureus; ATCC Number: 25923). Described as above. The following applies: for reduction in the quantity of S. aureus: irradiated. The format is cell-based.
Text: as §1, §2, §3, §4, §5, §6, §7, §8, §9, §10, §11, §12

Data set [4] in a line: time-resolved singlet oxygen luminescence measurements in gels. The note with it: final concentration 10 μM. The class given is physicochemical.
A short description of data set [5]: absorption spectrum following irradiation with varying doses of light (degradation of photosensitizer). The class given is physicochemical. The following applies: light dose 5.5 J to 990 J. As for the experimental part:
The absorption of the FL-AS-H-1a photosensitizer used in the microemulsions E5 and E6 was determined by recording an absorption spectrum for a wavelength range of 250 nm to 600 nm, as described in Example 1. To this end, the FL-AS-H-2 photosensitizer was dissolved in a concentration of 10 μM in the microemulsions E5 and E6, as well as in water. Furthermore, an absorption spectrum of FL-AS-H-2 in microemulsions E5 and E6 as well as in water was measured following irradiation with varying doses of light. For the irradiation, the light source Blue V from Waldmann, which emits light at 380 to 480 nm (emission maximum at approximately 420 nm) was used. The applied light dose was from 5.5 J to 990 J.

[6] abbreviates: photosensitizer 5 μM in microemulsion E1.
Setting [7] is: photosensitizer 5 μM in microemulsion E2.
The mark [8] stands for this setting: 10 μM to 100 μM, both in water and in microemulsions E1 to E4, Blue V 40 s, 20 mW/cm^2.
[9] abbreviates: more than 100 μM in water (concentrated aqueous solutions).
Setting [10] is: more than 100 μM to 500 μM in microemulsions.

With `C[n+]1ccc(-c2c3nc(c(-c4cc[n+](C)cc4)c4ccc([nH]4)c(-c4cc[n+](C)cc4)c4nc(c(-c5cc[n+](C)cc5)c5ccc2[nH]5)C=C4)C=C3)cc1` [TMPyP, 5,10,15,20-tetrakis(1-methyl-4-pyridyl)-porphyrin-tetra-(p-toluenesulphonate), reference compound], the “production of singlet oxygen following irradiation with electromagnetic radiation” value in data set [1] (5 μM in water or microemulsions) is “produced singlet oxygen”. For the same molecule, the Integral in data set [1] (photosensitizer 5 μM in H2O) amounted to 985; in data set [1] (setting [6]) it was 2874; in data set [1] (setting [7]), 1955. For the same molecule, the results for the Decay period in data set [1] (photosensitizer 5 μM in H2O), in data set [1] (setting [6]) and in data set [1] (setting [7]) were 3.8 μs, 8.9 μs and 7.2 μs, respectively. The Formation time in data set [1] (photosensitizer 5 μM in H2O) was 1.9 μs; in data set [1] (photosensitizer 5 μM in microemulsion E1 (DMS, SDS/1-pentanol (1:2); water)), 1.7 μs; in data set [1] (photosensitizer 5 μM in microemulsion E2 (DMS, SDS/1,2-pentanediol (1:2); water)), 2.3 μs. The “Relative yield with respect to H2O” value in data set [1] (5 μM in microemulsion E1) is on record as 2.92; in data set [1] (5 μM in microemulsion E2), 1.98. Moreover, the “destruction of E. coli by the singlet oxygen formed by the irradiation” value in data set [2] (setting [8]) is listed as “destroyed”. In addition, the “reduction in the quantity of E. coli” value in data set [2] (setting [9]) is recorded as 2 log units; in data set [2] (setting [10]), 5 log10 units. Moreover, the “destruction of S. aureus by the singlet oxygen formed by the irradiation” value in data set [3] (setting [8]) is given as “destroyed”. In addition, the “reduction in the quantity of S. aureus” value in data set [3] (setting [9]) is 2 log units; in data set [3] (setting [10]), 5 log10 units. Moreover, the “decay time for the singlet oxygen signal (tD)” value in data set [4] (in gel G3) came to 7.4 μs. In addition, the “rise time for the singlet oxygen signal (tR)” value in data set [4] (in gel G3) turned out to be 2.7 μs. Also, the “formation of singlet oxygen following irradiation” value in data set [4] (in gels G1, G2 and G3) is “could be detected”.
As to `Cc1cc2nc3c(=O)n(CCN)c(=O)nc-3n(CCN)c2cc1C.Cl.Cl` [FL-AS-H-2, 3,10-bis(2′-aminoeth-1′-yl)-7,8-dimethylbenzo[g]pteridine-2,4-dion-dihydrochloride], the “degradation of the photosensitizer following irradiation” value in data set [5] (10 μM in water, microemulsions E5 and E6, Blue V 380 to 480 nm) was “degraded both in water as well as in the microemulsions E5 and E6”. Also, the “rate of degradation in water compared with microemulsion E5 or E6” value in data set [5] (10 μM, Blue V) is “significantly faster”.

The values are drawn from patent publication US20190111168A1, “PHOTOSENSITIZER DISPERSION, AND USE THEREOF” (Universität Regensburg, priority 2016, published 2019).
